The target of the assay is T1, human mAChR M1 (Homo sapiens, UniProt P11229).
T1 construct: host or cells: CHO-K1
T1 sequence (P11229 1-460): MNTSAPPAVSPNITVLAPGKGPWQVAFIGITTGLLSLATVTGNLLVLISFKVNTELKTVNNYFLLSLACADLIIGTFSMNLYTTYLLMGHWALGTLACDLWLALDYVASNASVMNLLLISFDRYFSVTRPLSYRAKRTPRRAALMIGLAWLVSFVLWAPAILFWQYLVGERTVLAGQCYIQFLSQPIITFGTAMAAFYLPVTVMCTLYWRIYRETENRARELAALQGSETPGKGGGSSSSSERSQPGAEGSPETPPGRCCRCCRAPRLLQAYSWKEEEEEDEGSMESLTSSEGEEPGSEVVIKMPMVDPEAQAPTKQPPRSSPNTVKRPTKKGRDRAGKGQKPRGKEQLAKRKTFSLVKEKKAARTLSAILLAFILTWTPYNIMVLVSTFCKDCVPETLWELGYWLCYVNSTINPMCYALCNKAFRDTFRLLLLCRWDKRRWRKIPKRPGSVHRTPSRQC
The assay can be described thus: mAChR M1 cell-based functional assay (calcium mobilization, Fluo-4, FDSS). The conditions noted are these: CHO-K1 cells stably expressing hM1; for Emax: EC20 acetylcholine response, read-out: Human M1 Emax; for EC50: positive allosteric modulator activity as increase in the EC20 acetylcholine response. In outline: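 CHO-K1 cells stably expressing muscarinic receptor, loaded with Fluo-4; 11-point 1:3 compound series added and calcium flux read over 300 s at 1 Hz. Agonism from direct calcium rise, PAM activity as potentiation of EC20 acetylcholine, antagonism as decrease of EC80 acetylcholine; four-parameter logistic fits.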

As a reminder, the Emax is the size of the effect at its maximum, as opposed to the concentration needed. The EC50 is the concentration giving half of the maximal effect. As to `Cc1nc(-c2ccc(Cc3cc(C(=O)N[C@H]4CCCC[C@@H]4O)nc4c3ccn4C)cc2)co1` [Compound 52, N-[(1S,2S)-2-hydroxycyclohexyl]-1-methyl-4-[[4-(2-methyloxazol-4-yl)phenyl]methyl]pyrrolo[2,3-b]pyridine-6-carboxamide], the Emax is 80.1% and the EC50 amounted to 100 nM.

`Cc1nc(-c2ccc(Cc3cc(C(=O)N[C@H]4CCCC[C@@H]4O)nc4sccc34)cc2)co1` [Compound 129, N-[(1S,2S)-2-hydroxycyclohexyl]-4-[[4-(2-methyloxazol-4-yl)phenyl]methyl]thieno[2,3-b]pyridine-6-carboxamide]: the Emax turned out to be 63.9% and the EC50 was found to be 470 nM.

In the case of `Cn1ncc2c(Cc3ccc(-c4cscn4)cc3)cc(C(=O)NCC3CCOCC3)nc21` [Compound 29, 1-methyl-N-(tetrahydropyran-4-ylmethyl)-4-[(4-thiazol-4-ylphenyl)methyl]pyrazolo[3,4-b]pyridine-6-carboxamide], the Emax amounted to 48.1% and the half-maximal effective concentration (EC50) turned out to be 1610 nM.

For `Cn1ccc(-c2ccc(Cc3cc(C(=O)NC4CC(F)(F)C4)nc4c3ccn4C)cn2)n1` [Compound 154, N-(3,3-difluorocyclobutyl)-1-methyl-4-[[6-(1-methylpyrazol-3-yl)-3-pyridyl]methyl]pyrrolo[2,3-b]pyridine-6-carboxamide], the Emax came to 66.1% and the EC50 was 2530 nM.

With `CC1CC(NC(=O)c2cc(Cc3ccc(-c4ccn(C)n4)cc3)c3ccsc3n2)CC(C)O1` (stereo not drawn) [Compound 91, N-(2,6-dimethyltetrahydropyran-4-yl)-4-[[4-(1-methylpyrazol-3-yl)phenyl]methyl]thieno[2,3-b]pyridine-6-carboxamide], the maximal effect (Emax) amounted to 56.2% and the EC50 turned out to be 520 nM.

`Cn1ccc(-c2ccc(Cc3cc(C(=O)NC4CC5(COC5)C4)nc4c3ccn4C)cn2)n1` [Compound 149, 1-methyl-4-[[6-(1-methylpyrazol-3-yl)-3-pyridyl]methyl]-N-(2-oxaspiro[3.3]heptan-6-yl)pyrrolo[2,3-b]pyridine-6-carboxamide]: the Emax was found to be 78.1% and the EC50 was 370 nM.

For the compound `O=C(NC1CC(F)C1)c1cc(Cc2ccc(-n3cccn3)cc2)c2ccsc2n1` (stereo not drawn) [Compound 82], the Emax worked out at 69.6% and the EC50 stood at 2090 nM.

For the compound `Cn1cc(-c2ccc(Cc3cc(C(=O)NC4CC5(COC5)C4)nc4c3ccn4C)cn2)cn1` [Compound 48, 1-methyl-4-[[6-(1-methylpyrazol-4-yl)-3-pyridyl]methyl]-N-(2-oxaspiro[3.3]heptan-6-yl)pyrrolo[2,3-b]pyridine-6-carboxamide], the Emax is 87.1% and the EC50 turned out to be 140 nM.

For `Cn1cc(-c2ccc(Cc3cc(C(=O)N[C@H]4CCCC[C@@H]4O)nc4c3ccn4C)cn2)cn1` [Compound 46, N-[(1S,2S)-2-hydroxycyclohexyl]-1-methyl-4-[[6-(1-methylpyrazol-4-yl)-3-pyridyl]methyl]pyrrolo[2,3-b]pyridine-6-carboxamide], the Emax was found to be 73.9% and the concentration giving a half-maximal response (EC50) amounted to 30 nM.

`Cc1nc(-c2ccc(Cc3cc(C(=O)N[C@H]4CCOC[C@@H]4O)nc4c3ccn4C)cc2)co1` [Compound 51, N-[(3R,4S)-3-hydroxytetrahydropyran-4-yl]-1-methyl-4-[[4-(2-methyloxazol-4-yl)phenyl]methyl]pyrrolo[2,3-b]pyridine-6-carboxamide]: the Emax worked out at 83.4% and the EC50 is 30 nM.

Turning to `Cn1ccc(-c2ccc(Cc3cc(C(=O)N[C@H]4CCC[C@@H]4O)nc4c3ccn4C)cn2)n1` [Compound 153, N-[(1S,2S)-2-hydroxycyclopentyl]-1-methyl-4-[[6-(1-methylpyrazol-3-yl)-3-pyridyl]methyl]pyrrolo[2,3-b]pyridine-6-carboxamide], the maximal response (Emax) came to 75.1% and the concentration giving a half-maximal response (EC50) was 190 nM.

Regarding `Cn1cc(-c2ccc(Cc3cc(C(=O)NC4CC(F)(F)C4)nc4sccc34)cn2)cn1` [Compound 126, N-(3,3-difluorocyclobutyl)-4-[[6-(1-methylpyrazol-4-yl)-3-pyridyl]methyl]thieno[2,3-b]pyridine-6-carboxamide], the Emax was found to be 63.4% and the EC50 was determined as 270 nM.

Regarding `CCn1ccc2c(Cc3ccc(-n4cccn4)cc3)cc(C(=O)NC3CCOCC3)nc21` [Compound 11, 1-ethyl-4-[(4-pyrazol-1-ylphenyl)methyl]-N-tetrahydropyran-4-yl-pyrrolo[2,3-b]pyridine-6-carboxamide], the Emax was found to be 74% and the half-maximal effective concentration (EC50) was 280 nM.

Turning to `Cn1cc(-c2ccc(Cc3cc(C(=O)NC4CC5(COC5)C4)nc4sccc34)cn2)cn1` [Compound 123, 4-[[6-(1-methylpyrazol-4-yl)-3-pyridyl]methyl]-N-(2-oxaspiro[3.3]heptan-6-yl)thieno[2,3-b]pyridine-6-carboxamide], the Emax turned out to be 56.2% and the EC50 amounted to 100 nM.

Turning to `Cn1ccc2c(Cc3ccc(-n4cccn4)cc3)cc(C(=O)N[C@H]3CC[C@@H]3O)nc21` [Compound 20, N-[(1S,2S)-2-hydroxycyclobutyl]-1-methy1-4-[(4-pyrazol-1-ylphenyl)methyl]pyrrolo[2,3-b]pyridine-6-carboxamide], the maximal effect (Emax) came to 73.3% and the EC50 turned out to be 390 nM.

For `Cn1ccc2c(Cc3ccc(-c4cscn4)cc3)cc(C(=O)N[C@H]3CCOC[C@@H]3O)nc21` [Compound 21, N-[(3R,4S)-3-hydroxytetrahydropyran-4-yl]-1-methyl-4-[(4-thiazol-4-ylphenyl)methyl]pyrrolo[2,3-b]pyridine-6-carboxamide], the Emax amounted to 59.3% and the EC50 worked out at 20 nM.

With `Cn1cc(-c2ccc(Cc3cc(C(=O)N[C@@H]4CCOC4)nc4sccc34)cn2)cn1` [Compound 121, 4-[[6-(1-methylpyrazol-4-yl)-3-pyridyl]methyl]-N-[(3R)-tetrahydrofuran-3-yl]thieno[2,3-b]pyridine-6-carboxamide], the Emax was found to be 58.9% and the EC50 stood at 550 nM.

As to `Cn1ccc(-c2ccc(Cc3cc(C(=O)NC4CC5(COC5)C4)nc4sccc34)cn2)n1` [Compound 109, 4-[[6-(1-methylpyrazol-3-yl)-3-pyridyl]methyl]-N-(2-oxaspiro[3.3]heptan-6-yl)thieno[2,3-b]pyridine-6-carboxamide], the Emax amounted to 56.8% and the EC50 came out at 150 nM.

Take `Cn1ccc(-c2ccc(Cc3cc(C(=O)N[C@H]4CCCC[C@@H]4O)nc4sccc34)cc2)n1` [Compound 88, N-[(1S,2S)-2-hydroxycyclohexyl]-4-[[4-(1-methylpyrazol-3-yl)phenyl]methyl]thieno[2,3-b]pyridine-6-carboxamide]: the Emax turned out to be 62.4% and the EC50 worked out at 50 nM.

For the compound `Cc1nc(-c2ccc(Cc3cc(C(=O)NC4(C)COC4)nc4sccc34)cc2)co1` [Compound 140, 4-[[4-(2-methyloxazol-4-yl)phenyl]methyl]-N-(3-methyloxetan-3-yl)thieno[2,3-b]pyridine-6-carboxamide], the Emax worked out at 59.2% and the EC50 was 240 nM.

Regarding `Cn1cc(-c2ccc(Cc3cc(C(=O)NCC4CCOC4)nc4sccc34)cn2)cn1` (stereo not drawn) [Compound 122, 4-[[6-(1-methylpyrazol-4-yl)-3-pyridyl]methyl]-N-(tetrahydrofuran-3-ylmethyl)thieno[2,3-b]pyridine-6-carboxamide], the Emax turned out to be 57.5% and the EC50 was found to be 700 nM.

As to `CC1CC(NC(=O)c2cc(Cc3ccc(-c4cscn4)cc3)c3ccn(C)c3n2)CC(C)O1` (stereo not drawn) [Compound 24, N-(2,6-dimethyltetrahydropyran-4-yl)-1-methyl-4-[(4-thiazol-4-ylphenyl)methyl]pyrrolo[2,3-b]pyridine-6-carboxamide], the Emax stood at 65.3% and the concentration giving a half-maximal response (EC50) was 1110 nM.

Take `Cc1nc(-c2ccc(Cc3cc(C(=O)NC4CCOC(C)(C)C4)nc4c3ccn4C)cc2)co1` (stereo not drawn) [Compound 55, N-(2,2-dimethyltetrahydropyran-4-yl)-1-methyl-4-[[4-(2-methyloxazol-4-yl)phenyl]methyl]pyrrolo[2,3-b]pyridine-6-carboxamide]: the Emax turned out to be 86.1% and the EC50 amounted to 520 nM.

With `O=C(NCC1CCN1)c1cc(Cc2ccc(-n3cccn3)cc2)c2ccsc2n1` (stereo not drawn) [Compound 84, N-(azetidin-2-ylmethyl)-4-[(4-pyrazol-1-ylphenyl)methyl]thieno[2,3-b]pyridine-6-carboxamide], the Emax came out at 42.7% and the concentration giving a half-maximal response (EC50) is 1080 nM.

`Cc1nc(-c2ccc(Cc3cc(C(=O)NC4CC(F)C4)nc4sccc34)cc2)co1` (stereo not drawn) [Compound 141]: the Emax was found to be 35.9% and the EC50 was above 10000 nM.

For the compound `C[C@@H]1CC(NC(=O)c2cc(Cc3ccc(-c4nccs4)cc3)c3ccn(C)c3n2)C[C@H](C)O1` (stereo partly drawn) [Compound 65, N-[(2S,6R)-2,6-dimethyltetrahydropyran-4-yl]-1-methyl-4-[(4-thiazol-2-ylphenyl)methyl]pyrrolo[2,3-b]pyridine-6-carboxamide], the Emax came out at 58.6% and the EC50 was 2780 nM.

As to `Cn1ccc2c(Cc3ccc(-c4nccs4)cc3)cc(C(=O)NC3CCOC(C)(C)C3)nc21` (stereo not drawn) [Compound 66, N-(2,2-dimethyltetrahydropyran-4-yl)-1-methyl-4-[(4-thiazol-2-ylphenyl)methyl]pyrrolo[2,3-b]pyridine-6-carboxamide], the Emax worked out at 59.6% and the EC50 amounted to 1650 nM.
